Target: T1, LXRβ (Homo sapiens, UniProt P55055)
T1 construct: Co-transfection expression plasmids, comprising full-length LXRα (pCMX-h LXRα[…] or LXRβ (pCMX-hLXRβ)); expressed in transfected cells; host or cells: CV-1 African Green Monkey Kidney Cells
T1 sequence (P55055 1-460): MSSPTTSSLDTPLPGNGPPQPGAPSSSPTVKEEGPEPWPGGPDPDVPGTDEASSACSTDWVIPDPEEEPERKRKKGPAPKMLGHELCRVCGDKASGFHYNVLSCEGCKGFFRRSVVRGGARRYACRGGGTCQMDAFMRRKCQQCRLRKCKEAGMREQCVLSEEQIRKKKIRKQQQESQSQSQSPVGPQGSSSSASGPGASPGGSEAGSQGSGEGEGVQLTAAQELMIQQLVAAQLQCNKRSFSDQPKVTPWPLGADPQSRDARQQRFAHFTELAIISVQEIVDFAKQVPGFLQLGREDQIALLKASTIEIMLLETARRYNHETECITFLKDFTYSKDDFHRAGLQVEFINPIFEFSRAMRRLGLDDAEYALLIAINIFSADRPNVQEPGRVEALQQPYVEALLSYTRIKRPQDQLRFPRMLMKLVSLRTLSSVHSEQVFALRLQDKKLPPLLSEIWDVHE
T1 sequence (P19793 1-462 partner): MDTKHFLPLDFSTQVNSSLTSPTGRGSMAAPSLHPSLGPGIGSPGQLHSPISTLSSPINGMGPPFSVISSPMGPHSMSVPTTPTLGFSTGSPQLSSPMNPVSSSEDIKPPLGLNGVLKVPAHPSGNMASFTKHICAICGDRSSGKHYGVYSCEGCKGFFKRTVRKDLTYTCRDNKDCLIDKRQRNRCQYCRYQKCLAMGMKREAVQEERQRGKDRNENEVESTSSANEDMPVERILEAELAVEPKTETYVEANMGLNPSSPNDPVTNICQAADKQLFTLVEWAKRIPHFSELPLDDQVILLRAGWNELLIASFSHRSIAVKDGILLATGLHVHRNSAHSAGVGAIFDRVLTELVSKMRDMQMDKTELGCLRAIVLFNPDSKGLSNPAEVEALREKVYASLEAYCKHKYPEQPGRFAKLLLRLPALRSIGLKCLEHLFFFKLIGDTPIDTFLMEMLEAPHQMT
Experiment: Co-transfection assay (LXRE luciferase reporter), LXRβ
Format: cell-based
Settings: for EC50: CV-1 cells transfected with pCMX-hLXRβ and LXREx1-Tk-Luciferase, 20 hours incubation; for Emax: LXRβ co-transfection, relative to high control 1-(2,4-difluorobenzyl)-2-oxo-6-(4-phenoxyphenyl)-4-(trifluoromethyl)-1,2-dihydropyridine-3-carbonitrile, read-out: % Efficacy
In short: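 CV-1 cells transiently co-transfected with full-length human LXRβ expression plasmid, LXREx1-Tk-luciferase reporter and β-galactosidase control, then exposed to compound for 20 h at 37 °C. Luciferase luminescence read; EC50 from 11-point, ½-log dose–response fit, efficacy relative to high-control agonist maximum.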

SMILES	EC50 [nM]	Emax [%]
CS(=O)(=O)c1cccc(-c2ccc(-n3cc(C(F)(F)F)nc3Cl)c(-n3nncc3-c3ccc(OC(F)(F)F)cc3)c2)c1 [Example 146, 1-{4-[2-chloro-4-(trifluoromethyl)-1H-imidazol-1-yl]-3′-(methylsulfonyl)biphenyl-3-yl}-5-{4-[(trifluoromethyl)oxy]phenyl}-1H-1,2,3-triazole]	251	112
Cc1nc(Cl)cn1-c1ccc(-c2cc(F)c(CO)c(S(C)(=O)=O)c2)cc1-n1nncc1-c1ccc(OC(F)(F)F)cc1 [Example 147, [4′-(4-chloro-2-methyl-1H-imidazol-1-yl)-3-fluoro-5-(methylsulfonyl)-3′-(5-{4-[(trifluoromethyl)oxy]phenyl}-1H-1,2,3-triazol-1-yl)biphenyl-4-yl]methanol]	413	76
Cc1nc(Cl)cn1-c1ccc(-c2cc(F)c(CO)c(S(C)(=O)=O)c2)cc1-n1nncc1-c1ccc(Cl)cc1 [Example 148, [4′-(4-chloro-2-methyl-1H-imidazol-1-yl)-3′-[5-(4-chlorophenyl)-1H-1,2,3-triazol-1-yl]-3-fluoro-5-(methylsulfonyl)biphenyl-4-yl]methanol]	447	42
Cc1nc(Cl)cn1-c1ccc(-c2cccc(S(C)(=O)=O)c2)cc1-n1nncc1-c1ccc(OC(F)(F)F)cc1 [Example 149, 1-[4-(4-chloro-2-methyl-1H-imidazol-1-yl)-3′-(methylsulfonyl)biphenyl-3-yl]-5-{4-[(trifluoromethyl)oxy]phenyl}-1H-1,2,3-triazole]	444	75
Cc1nc(Cl)cn1-c1ccc(-c2cccc(S(C)(=O)=O)c2)cc1-n1nncc1-c1ccc(Cl)cc1 [Example 150, 1-[4-(4-chloro-2-methyl-1H-imidazol-1-yl)-3′-(methylsulfonyl)biphenyl-3-yl]-5-(4-chlorophenyl)-1H-1,2,3-triazole]	1290	56
Cc1nc(Cl)c(Cl)n1-c1ccc(-c2cccc(S(C)(=O)=O)c2)cc1-n1nncc1-c1ccc(OC(F)(F)F)cc1 [Example 151, 1-[4-(4,5-dichloro-2-methyl-1H-imidazol-1-yl)-3′-(methylsulfonyl)biphenyl-3-yl]-5-{4-[(trifluoromethyl)oxy]phenyl}-1H-1,2,3-triazole]	214	148
Cc1nc(C(=O)NC(C)(C)C)cn1-c1ccc(-c2cccc(S(C)(=O)=O)c2)cc1-n1nncc1-c1ccc(OC(F)(F)F)cc1 [Example 152, N-(1,1-dimethylethyl)-2-methyl-1-[3′-(methylsulfonyl)-3-(5-{4-[(trifluoromethyl)oxy]phenyl}-1H-1,2,3-triazol-1-yl)biphenyl-4-yl]-1H-imidazole-4-carboxamide]	1230	49
CNS(=O)(=O)c1cccc(-c2ccc(-n3cc(C(F)F)nc3C)c(-n3nncc3-c3ccc(OC(F)(F)F)cc3)c2)c1 [Example 154, 4′-[4-(difluoromethyl)-2-methyl-1H-imidazol-1-yl]-N-methyl-3′-(5-{4-[(trifluoromethyl)oxy]phenyl}-1H-1,2,3-triazol-1-yl)biphenyl-3-sulfonamide]	527	91
Cc1nc(C(F)F)cn1-c1ccc(-c2cccc(S(=O)(=O)N(C)C)c2)cc1-n1nncc1-c1ccc(OC(F)(F)F)cc1 [Example 155, 4′-[4-(difluoromethyl)-2-methyl-1H-imidazol-1-yl]-N,N-dimethyl-3′-(5-{4-[(trifluoromethyl)oxy]phenyl}-1H-1,2,3-triazol-1-yl)biphenyl-3-sulfonamide]	701	93
Cc1nc(C(F)F)cn1-c1ccc(-c2cccc(C(C)(C)C(N)=O)c2)cc1-n1nncc1-c1ccc(OC(F)(F)F)cc1 [Example 156, 2-{4′-[4-(difluoromethyl)-2-methyl-1H-imidazol-1-yl]-3′-(5-{4-[(trifluoromethyl)oxy]phenyl}-1H-1,2,3-triazol-1-yl)biphenyl-3-yl}-2-methylpropanamide]	1640	93
CCS(=O)(=O)c1cccc(-c2ccc(-n3cc(C(F)F)nc3C)c(-n3nncc3-c3ccc(OC(F)(F)F)cc3)c2)c1 [Example 157, 1-{4-[4-(difluoromethyl)-2-methyl-1H-imidazol-1-yl]-3′-(ethylsulfonyl)biphenyl-3-yl}-5-{4-[(trifluoromethyl)oxy]phenyl}-1H-1,2,3-triazole]	1130	104
Cc1nc(C(F)F)cn1-c1ccc(-c2cc(Cl)c(CO)c(S(C)(=O)=O)c2)cc1-n1nncc1-c1ccc(OC(F)(F)F)cc1 [Example 158, {3-chloro-4′-[4-(difluoromethyl)-2-methyl-1H-imidazol-1-yl]-5-(methylsulfonyl)-3′-(5-{4-[(trifluoromethyl)oxy]phenyl}-1H-1,2,3-triazol-1-yl)biphenyl-4-yl}methanol]	1410	88

The next lines start with the values.

EC50 [nM]	Emax [%]	SMILES
783	97	Cc1nc(C(F)F)cn1-c1ccc(-c2ccc(CO)c(S(C)(=O)=O)c2)cc1-n1nncc1-c1ccc(OC(F)(F)F)cc1 [Example 159, {4′-[4-(difluoromethyl)-2-methyl-1H-imidazol-1-yl]-3-(methylsulfonyl)-3′-(5-{4-[(trifluoromethyl)oxy]phenyl}-1H-1,2,3-triazol-1-yl)biphenyl-4-yl}methanol]
977	65	Cc1nc(C(F)F)cn1-c1ccc(-c2cccc(S(C)(=O)=O)c2)cc1-n1nncc1-c1ccc(Cl)cc1 [Example 162, 5-(4-chlorophenyl)-1-{4-[4-(difluoromethyl)-2-methyl-1H-imidazol-1-yl]-3′-(methylsulfonyl)biphenyl-3-yl}-1H-1,2,3-triazole]
1600	61	Cc1nc(C(F)F)cn1-c1ccc(-c2cccc(S(C)(=O)=O)c2)cc1-n1nncc1-c1ccc(Cl)cc1Cl [Example 163, 5-(2,4-dichlorophenyl)-1-{4-[4-(difluoromethyl)-2-methyl-1H-imidazol-1-yl]-3′-(methylsulfonyl)biphenyl-3-yl}-1H-1,2,3-triazole]
203	59	Cc1nc(C(F)(F)C(C)C)cn1-c1ccc(-c2cccc(S(C)(=O)=O)c2)cc1-n1nncc1-c1ccc(OC(F)(F)F)cc1 [Example 164, 1-{4-[4-(1,1-difluoro-2-methylpropyl)-2-methyl-1H-imidazol-1-yl]-3′-(methylsulfonyl)biphenyl-3-yl}-5-{4-[(trifluoromethyl)oxy]phenyl}-1H-1,2,3-triazole]
643	66	Cc1nc(C(C)(F)F)cn1-c1ccc(-c2cccc(S(C)(=O)=O)c2)cc1-n1nncc1-c1ccc(OC(F)(F)F)cc1 [Example 165, 1-{4-[4-(1,1-difluoroethyl)-2-methyl-1H-imidazol-1-yl]-3′-(methylsulfonyl)biphenyl-3-yl}-5-{4-[(trifluoromethyl)oxy]phenyl}-1H-1,2,3-triazole]
1650	78	COc1ccc(-c2cnnn2-c2cc(-c3cccc(S(C)(=O)=O)c3)ccc2-n2cc(C(F)F)nc2C)cc1 [Example 166, 1-{4-[4-(difluoromethyl)-2-methyl-1H-imidazol-1-yl]-3′-(methylsulfonyl)biphenyl-3-yl}-5-[4-(methyloxy)phenyl]-1H-1,2,3-triazole]
779	107	Cc1nc(C(F)F)cn1-c1ccc(-c2cccc(S(C)(=O)=O)c2)cc1-n1nncc1-c1ccc2c(c1)OC(F)(F)O2 [Example 167, 5-(2,2-difluoro-1,3-benzodioxol-5-yl)-1-{4-[4-(difluoromethyl)-2-methyl-1H-imidazol-1-yl]-3′-(methylsulfonyl)biphenyl-3-yl}-1H-1,2,3-triazole]
945	81	Cc1ccc(-c2cnnn2-c2cc(-c3cccc(S(C)(=O)=O)c3)ccc2-n2cc(C(F)F)nc2C)cc1 [Example 168, 1-{4-[4-(difluoromethyl)-2-methyl-1H-imidazol-1-yl]-3′-(methylsulfonyl)biphenyl-3-yl}-5-(4-methylphenyl)-1H-1,2,3-triazole]
570	93	Cc1nc(C(F)F)cn1-c1ccc(-c2cccc(S(C)(=O)=O)c2)cc1-n1nncc1-c1ccc(OC(F)(F)F)c(F)c1 [Example 169, 1-{4-[4-(difluoromethyl)-2-methyl-1H-imidazol-1-yl]-3′-(methylsulfonyl)biphenyl-3-yl}-5-{3-fluoro-4-[(trifluoromethyl)oxy]phenyl}-1H-1,2,3-triazole]

— patent US9834542B2, “LXR modulators” (BRISTOL-MYERS SQUIBB COMPANY, priority 2013, dated 2017)
